For this assay, the target named is STAT3 (Homo sapiens, UniProt P40763). Nature of the assay: STAT3 HiBiT degradation assay in transfected A549 cells. It counts as cell-based. The arrangement: expressed in transfected cells; host or cells: A549. As for the experimental part:
Compound preparation and Cell seeding: The transfected A549 cells were harvested from dish into cell culture medium and cell numbers counted. Cells were diluted with culture medium to the desired density and 30 μL of cell suspension (about 2000 cells/well) were added into each well of a 384-well cell culture plate as designated and transferred into 37° C. 5% CO2 incubator for 24 h. Compounds were dissolved to 10 mM stock solution and 12 μL of the stock solution was transferred to a 384 LDV-plate. 3 fold, 10-point dilution was performed by transferring 4 μL compound into 8 μL DMSO using a TECAN (EVO200) liquid handler. 30 μL of diluted compound from compound source plate was transferred into the cell plate as designated by using Echo550 and transferred into 37° C. 5% CO2 incubator for 24 h.
Detection: Plates were removed from incubators and equilibrated at room temperature for 15 minutes. Nano-Glo Hibit Lytic Detection reagent (Promega Cat #N3040) was thawed and equilibrated to room temperature before the experiment. 30 μL of Nano-Glo Hibit Lytic Detection reagent was added into each well to be detected. The plates were held at room temperature for 10 min followed by reading on EnSpire.
Data analysis: The remaining activity was calculated following the formula: Remaining Activity (%)=100%×(Lumsample−LumNC)/(LumPC−LumNC). Calculate the IC50 by fitting the curve using Xlfit (v5.3.1.3), equation 201: fit=(A+((B−A)/(1+((x/C)^D)))); A: Bottom; B: Top; C: IC50; and D: Slope.
The letter codes for STAT3 DC50 include: A (<0.01 μM), B (0.01-0.1 μM), C (0.1-1.0 μM), and D (>1.0 μM).
(HiBiT is a short tag that completes a luciferase, so light tracks the accessible tagged protein.)

[1] abbreviates: A549, 24 h; read-out: STAT3 HiBiT A549 degradation 24 h: Average external-Abs DC50.

SMILES strings stand for the structures. Like-named read-outs stand apart in the source and are kept apart here. Bounds are passed on as bounds.

Chain of STAT3 (P40763 whole entry): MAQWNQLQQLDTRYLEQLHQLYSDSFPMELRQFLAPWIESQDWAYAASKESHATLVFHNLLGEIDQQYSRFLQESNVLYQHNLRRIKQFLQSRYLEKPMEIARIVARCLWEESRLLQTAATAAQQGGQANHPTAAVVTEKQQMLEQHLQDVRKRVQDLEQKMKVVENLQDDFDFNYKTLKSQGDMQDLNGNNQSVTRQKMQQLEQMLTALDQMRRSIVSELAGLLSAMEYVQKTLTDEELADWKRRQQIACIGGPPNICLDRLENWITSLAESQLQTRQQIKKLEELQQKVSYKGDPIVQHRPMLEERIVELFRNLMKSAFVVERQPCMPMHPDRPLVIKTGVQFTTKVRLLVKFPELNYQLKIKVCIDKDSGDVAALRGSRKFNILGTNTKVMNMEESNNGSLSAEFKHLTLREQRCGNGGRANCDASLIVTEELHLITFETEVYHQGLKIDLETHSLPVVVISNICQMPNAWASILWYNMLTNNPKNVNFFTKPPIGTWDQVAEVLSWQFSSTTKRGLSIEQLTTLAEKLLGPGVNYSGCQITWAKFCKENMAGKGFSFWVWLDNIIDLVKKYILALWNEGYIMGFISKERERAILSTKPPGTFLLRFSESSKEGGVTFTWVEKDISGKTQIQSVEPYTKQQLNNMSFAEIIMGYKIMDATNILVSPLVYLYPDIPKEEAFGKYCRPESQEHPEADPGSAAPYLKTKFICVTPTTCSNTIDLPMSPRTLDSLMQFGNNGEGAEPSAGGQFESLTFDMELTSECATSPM

As a reminder, the DC50 is the concentration giving 50% degradation. Consider `Cc1ncsc1-c1ccc([C@H](C)NC(=O)[C@@H]2C[C@@H](O)CN2C(=O)[C@@H](NC(=O)CCCCCc2cc(F)cc(OC[C@H](CCC(N)=O)NC(=O)[C@@H]3Cc4cccc5c4N3C(=O)[C@@H](NC(=O)c3cc4cc(C(=O)P(=O)(O)O)ccc4[nH]3)CC5)c2)C(C)(C)C)cc1` [Compound I-216, 2-[[(2S,11S)-2-[[(2S)-4-carbamoyl-1-[3-fluoro-5-(5-[[(2S)-1-[(2S,4R)-4-hydroxy-2-[[(1S)-1-[4-(4-methyl-1,3-thiazol-5-yl)phenyl]ethyl]carbamoyl]pyrrolidin-1-yl]-3,3-dimethyl-1-oxobutan-2-yl]carbamoyl]pentyl)phenoxy]butan-2-yl]carbamoyl]-12-oxo-1-azatricyclo[6.4.1.0^[4,13]]trideca-4(13),5,7-trien-11-yl]carbamoyl]-1H-indole-5-carbonylphosphonic acid], for which the DC50 under setting [1] was in the range of 10 to 100 nM.
With `Cc1ncsc1-c1ccc(CNC(=O)[C@@H]2C[C@@H](O)CN2C(=O)[C@@H](NC(=O)CCc2ccc3ccc(CO[C@H](C)[C@H](CCC(N)=O)NC(=O)[C@@H]4Cc5cccc6c5N4C(=O)[C@@H](NC(=O)c4cc5cc(C(=O)P(=O)(O)O)ccc5[nH]4)CC6)cc3c2)C(C)(C)C)cc1` [Compound I-126], under setting [1], the DC50 is greater than 1000 nM.
On the same count and under the same terms, with `Cc1ncsc1-c1ccc(CNC(=O)[C@@H]2C[C@@H](O)CN2C(=O)[C@@H](NC(=O)CCC2CCN(c3ccc(CO[C@H](C)[C@H](CCC(N)=O)NC(=O)[C@@H]4Cc5cccc6c5N4C(=O)[C@@H](NC(=O)c4cc5cc(C(=O)P(=O)(O)O)ccc5[nH]4)CC6)cc3)CC2)C(C)(C)C)cc1` [Compound I-160, diammonium 2-[[(2S,11S)-2-[[(3S,4R)-1-carbamoyl-4-([4-[4-(2-[[(2S)-1-[(2S,4R)-4-hydroxy-2-([[4-(4-methyl-1,3-thiazol-5-yl)phenyl]methyl]carbamoyl)pyrrolidin-1-yl]-3,3-dimethyl-1-oxobutan-2-yl]carbamoyl]ethyl)piperidin-1-yl]phenyl]methoxy)pentan-3-yl]carbamoyl]-12-oxo-1-azatricyclo[6.4.1.0^4,13]]trideca-4(13),5,7-trien-11-yl]carbamoyl]-1H-indole-5-carbonylpho sphonate] the figure was greater than 1000 nM.
`Cc1ncsc1-c1ccc([C@H](C)NC(=O)[C@@H]2C[C@@H](O)CN2C(=O)[C@@H](NC(=O)CCCCc2cccc(NC(=O)[C@H](CCC(N)=O)NC(=O)[C@@H]3Cc4cccc5c4N3C(=O)C(CC(=O)c3cc4ccc(C(=O)P(=O)(O)O)cc4[nH]3)CC5)c2)C(C)(C)C)cc1` (some centres unmarked) [Compound I-280]: the DC50 under setting [1] was in the range of 10 to 100 nM.
The same measure, in the same setting: for `CC(=O)N1CC[C@H]2CC[C@@H](C(=O)N[C@@H](CCC(N)=O)C(=O)NCCCCCCCC(=O)N[C@H](C(=O)N3C[C@H](O)C[C@H]3C(=O)NCc3ccc(-c4scnc4C)cc3)C(C)(C)C)N2C(=O)[C@@H](NC(=O)c2cc3cc(C(=O)P(=O)(O)O)ccc3[nH]2)C1` [Compound I-172, 2-[[(5S,8S,10aR)-3-acetyl-8-[[(1S)-3-carbamoyl-1-[(7-[[(2S)-1-[(2S,4R)-4-hydroxy-2-([[4-(4-methyl-1,3-thiazol-5-yl)phenyl]methyl]carbamoyl)pyrrolidin-1-yl]-3,3-dimethyl-1-oxobutan-2-yl]carbamoyl]heptyl)carbamoyl]propyl]carbamoyl]-6-oxo-octahydropyrrolo[1,2-a][1,5]diazocin-5-yl]carbamoyl]-1H-indole-5-carbonylphosphonic acid] the value was greater than 1000 nM; for `Cc1ncsc1-c1ccc(C2(NC(=O)[C@@H]3C[C@@H](O)CN3C(=O)[C@@H](NC(=O)CCCc3cccc(OC[C@H](CCC(N)=O)NC(=O)[C@@H]4Cc5cccc6c5N4C(=O)[C@@H](NC(=O)c4cc5cc(C(=O)P(=O)(O)O)ccc5[nH]4)CC6)c3Cl)C(C)(C)C)CC2)cc1` [Compound I-283], 10 to 100 nM; for `Cn1c(=O)n(C2CCC(=O)NC2=O)c2ccc(C[C@H]3CC[C@H](CCC(=O)N4CC[C@H]5CC[C@@H](C(=O)N[C@@H](CCC(N)=O)C(=O)NC(c6ccccc6)c6ccccc6)N5C(=O)[C@@H](NC(=O)c5cc6cc(C(=O)P(=O)(O)O)ccc6[nH]5)C4)CC3)cc21` (some centres unmarked) [Compound I-167], 100 to 1000 nM.
Take `Cc1ncsc1-c1ccc([C@H](C)NC(=O)[C@@H]2C[C@@H](O)CN2C(=O)[C@@H](NC(=O)CCc2cccc(OC[C@H](CCC(N)=O)NC(=O)[C@@H]3Cc4cccc5c4N3C[C@@H](CC(=O)C3Cc4cc(C(=O)P(=O)(O)O)ccc4N3)CC5)c2)C(C)(C)C)cc1` (stereo partly drawn) [Compound I-260, diammonium 2-[[(2S,11S)-2-[[(2S)-4-carbamoyl-1-[3-(2-[[(2S)-1-[(2S,4R)-4-hydroxy-2-[[(1S)-1-[4-(4-methyl-1,3-thiazol-5-yl)phenyl]ethyl]carbamoyl]pyrrolidin-1-yl]-3,3-dimethyl-1-oxobutan-2-yl]carbamoyl]ethyl)phenoxy]butan-2-yl]carbamoyl]-12-oxo-1-azatricyclo[6.4.1.0^[4,13]]trideca-4(13),5,7-trien-11-yl]carbamoyl]-1H-indole-5-carbonylphosphonate]: the DC50 under setting [1] was greater than 1000 nM.
Consider `CC(=O)N1CC[C@H]2CC[C@@H](C(=O)N[C@@H](CCC(N)=O)COc3cc(C)cc(CCCCC(=O)N[C@H](C(=O)N4C[C@H](O)C[C@H]4C(=O)N[C@@H](C)c4ccc(-c5scnc5C)cc4)C(C)(C)C)c3F)N2C(=O)[C@@H](NC(=O)c2cc3cc(C(=O)P(=O)(O)O)ccc3[nH]2)C1` [Compound I-236, diammonium 2-[[(5S,8S,10aR)-3-acetyl-8-[[(2S)-4-carbamoyl-1-[2-fluoro-3-(4-[[(2S)-1-[(2S,4R)-4-hydroxy-2-[[(1S)-1-[4-(4-methyl-1,3-thiazol-5-yl)phenyl]ethyl]carbamoyl]pyrrolidin-1-yl]-3,3-dimethyl-1-oxobutan-2-yl]carbamoyl]butyl)-5-methylphenoxy]butan-2-yl]carbamoyl]-6-oxo-octahydropyrrolo[1,2-a][1,5]diazocin-5-yl]carbamoyl]-1H-indole-5-carbonylphosphonate], for which the DC50 (read-out: STAT3 HiBiT A549 degradation 24 h: Average external-Abs DC50; A549, 24 h) fell in the range of 100 to 1000 nM.
In the case of `Cc1ncsc1-c1ccc([C@H](C)NC(=O)[C@@H]2C[C@@H](O)CN2C(=O)[C@@H](NC(=O)CCCCCc2cccc(OC[C@H](CCC(N)=O)NC(=O)[C@@H]3Cc4cccc5c4N3C(=O)[C@@H](NC(=O)c3cc4cc(C(=O)P(=O)(O)O)ccc4[nH]3)CC5)c2F)C(C)(C)C)cc1` [Compound I-217, 2-[[(2S,11S)-2-[[(2S)-4-carbamoyl-1-[2-fluoro-3-(5-[[(2S)-1-[(2S,4R)-4-hydroxy-2-[[(1S)-1-[4-(4-methyl-1,3-thiazol-5-yl)phenyl]ethyl]carbamoyl]pyrrolidin-1-yl]-3,3-dimethyl-1-oxobutan-2-yl]carbamoyl]pentyl)phenoxy]butan-2-yl]carbamoyl]-12-oxo-1-azatricyclo[6.4.1.0^[4,13]]trideca-4(13),5,7-trien-11-yl]carbamoyl]-1H-indole-5-carbonylphosphonic acid], the DC50 under setting [1] was less than 10 nM.
As to `C/C(=C\C(=O)N[C@H]1CN(C(=O)CCCCCCc2ccc3c(c2)n(C)c(=O)n3C2CCC(=O)NC2=O)CC[C@H]2CC[C@@H](C(=O)N[C@@H](CCC(N)=O)C(=O)NC(c3ccccc3)c3ccccc3)N2C1=O)c1cccc(C(F)(F)P(=O)(O)O)c1` (stereo partly drawn) [Compound I-143, [3-[(1E)-1-[[(8S,10aR)-8-[[(1S)-3-carbamoyl-1-(diphenylmethylcarbamoyl)propyl]carbamoyl]-3-[7-[1-(2,6-dioxopiperidin-3-yl)-3-methyl-2-oxo-1,3-benzodiazol-5-yl]heptanoyl]-6-oxo-octahydropyrrolo[1,2-a][1,5]diazocin-5-yl]carbamoyl]prop-1-en-2-yl]phenyl]difluoromethylphosphonic acid], under setting [1], the DC50 is greater than 1000 nM.

For the origin of these results see patent US12077555B2, “STAT degraders and uses thereof” (Kymera Therapeutics, Inc., priority 2019, dated 2024).
